Laboratory results published in patent publication US11649246B2, “Salts of 4-amino-N-(l-((3-chloro-2-fluorophenyl)amino)-6-methylisoquinolin-5-yl)thieno[3,2-D]pyrimidine-7-carboxamide, and crystalline forms thereof” (Hanmi Pharm. Co., Ltd., priority 2017, dated 2023).
Like-named read-outs stand apart in the source and are kept apart here.

Tests used:
Assay type in all cases: physicochemical
[1] = Partition / distribution coefficient octanol-water (Sirius T3); conditions: octanol/water
Method: The partition coefficient, Log P, was measured with a T3 (Sirius Analytical Instrument Ltd., UK). About 1 mg of Formula (I) bis-hydrochloride was added to a 15 mL GLpKa beaker, dissolved with octanol/150 mM KCl, adjusted to pH 1.8 with 0.5 N HCl, and titrated up to pH 12.2 with 0.5 N KOH. The partition coefficient of the octanol-water system was determined by correcting the difference between titration curves of the blank from the titration curve, by inserting the value of the dissociation constant measured previously.

[2] = Dissociation constant (pKa), GLpKa method, Sirius T3; conditions: for pKa: MDM co-solvent solution (ISA Water/MeOH/ACN/p-Dioxane), 43% MDM solution
Method: Based on these pKa values, Formula (I) is believed to be weakly basic compound.
The dissociation, pKa, was measured with a T3 (Sirius Analytical Instrument Ltd., UK). About 1 mg of Formula (I) bis-hydrochloride was transferred to a GLpKa beaker, dissolved with 43% to 53% MDM solution (ISA Water/MeOH/ACN/p-Dioxane=40/20/20/20, Sirius), adjusted to pH 1.8 with 0.5 N HCl, and titrated up to pH 12.2 with 0.5 N KOH. The pKa as an aqueous solution was calculated by extrapolation.

[3] = Long-term stability at 20° C. to 30° C., 60% relative humidity, protection from light; conditions: 60% RH
Method: The stability of crystalline Formula (I) bis-hydrochloride Form I was evaluated at 3 months, 6 months, 9 months, 12 months, 18 months and 24 under conditions of 20° C. to 30° C. at 60% relative humidity and protection from light. Stability criteria included the following. At each interval from 3 to 24 months the crystalline Formula (I) bis-hydrochloride Form I appeared as a pale brown to off-white powder. Identification was performed by IR, PXRD and HPLC methods as described elsewhere herein with results reported as pass/fail. Purity was determined by HPLC with known impurities at relative retention times (“RRT”) of 1.1, 1.7 and 2.1. The results are shown in Table 22 where “Init” refers to initial, “Iden” refers to identification, “Imp” refers to impurity, “A.U.I.” refers to any unspecified impurity, “T.U.I.” refers to total unspecified impurity, “T.I.” refers to total impurities, and “N.D.” refers to not detected. The PXRD results at initial, 6 months, 12 months and 24 months are depicted in FIG. 33.

[4] = Hygroscopicity by dynamic vapor sorption (DVS); conditions: Form I trihydrate
Method: Dynamic vapor sorption (DVS) analysis was performed in a DVS advantage (Surface measurement system, United Kingdom) analyzer at 25° C. with a relative humidity of 0% to 90%. A sample in an amount of 10 mg was placed into a wire-mesh vapor sorption balance pan and then attached to a DVS advantage dynamic vapor sorption balance via surface measurement systems. […] Upon completion of the sorption cycle, the sample was dried using the same process while maintaining a relative humidity of 0%. The changes in the sample weight during the adsorption/desorption cycle (repeated 3 times) were recorded and the hygroscopicity of the sample was measured. DVS isotherm diagrams are presented in FIGS. 1, 3, 6, 10, 13, 16 and 19 where Target PP (%) refers to relative humidity, “SORP” refers to adsorption and “DESORP” refers to desorption.
Hygroscopicity was measured by DVS where the DVS curve for Formula (I) bis-hydrochloride was recorded in a DVS Advantage I analyzer (SMS, United Kingdom). The DVS was operated over 3 cycles for measurement of the surface adsorption effects of water, from 0% RH to 90% RH at 25°.

[5] = as an aqueous solution, calculated by extrapolation

Cc1ccc2c(Nc3cccc(Cl)c3F)nccc2c1NC(=O)c1csc2c(N)ncnc12 [Example 3, 4-amino-N-(1-((3-chloro-2-fluorophenyl)amino)-6-methylisoquinolin-5-yl)thieno[3,2-d]pyrimidine-7-carboxamide]
logD ([1]; pH 1): 0.02
logD ([1]; pH 1.2): 0.05
logD ([1]; pH 2): 0.77
logD ([1]; pH 3): 2.64
logD ([1]; pH 4): 4.26
logD ([1]; pH 5): 5.06
logD ([1]; pH 6): 5.22
logD ([1]; pH 6.5): 5.24
logD ([1]; pH 7): 5.24
logD ([1]; pH 8): 5.24
logD ([1]; pH 9): 5.23
logD ([1]; pH 10): 5.11
logD ([1]; pH 11): 4.71
logD ([1]; pH 12): 4.4
pKa ([2]; column 1, read-out: pKa (first value)): 3.85
pKa ([2]; column 1, read-out: pKa (second value)): 4.71
pKa ([2]; column 1, read-out: pKa (third value)): 10.4
pKa ([2]; column 2, read-out: pKa (first value)): 3.88
pKa ([2]; column 2, read-out: pKa (second value)): 4.7
pKa ([2]; column 2, read-out: pKa (third value)): 10.4
pKa ([2]; column 3, read-out: pKa (first value)): 3.84
pKa ([2]; column 3, read-out: pKa (second value)): 4.69
pKa ([2]; column 3, read-out: pKa (third value)): 10.4
pKa1 [2, 5]: 3.86
pKa2 [2, 5]: 4.73
pKa3 ([2]; as an aqueous solution, calculated by extrapolation, listed as Formula (I) bis-hydrochloride Form I): 10.3
A.U.I. (any unspecified impurity) ([3]; 3 mo): 0.03%
Identity HPLC ([3]; 3 mo): pass
Imp 1 ([3]; 3 mo): 0.02%
Imp RRT 1.7 ([3]; 3 mo): 0.08%
Purity ([3]; 3 mo): 99.8%
T.I. (total impurities) ([3]; 3 mo): 0.15%
T.U.I (total unspecified impurity) ([3]; 3 mo): 0.05%
A.U.I. (any unspecified impurity) ([3]; 6 mo): 0.03%
Identity HPLC ([3]; 6 mo): pass
Identity IR ([3]; 6 mo): pass
Identity PXRD ([3]; 6 mo): pass
Imp 1 ([3]; 6 mo): 0.03%
Imp RRT 1.7 ([3]; 6 mo): 0.08%
Purity ([3]; 6 mo): 99.8%
T.I. (total impurities) ([3]; 6 mo): 0.16%
T.U.I (total unspecified impurity) ([3]; 6 mo): 0.05%
A.U.I. (any unspecified impurity) ([3]; 9 mo): 0.03%
Identity HPLC ([3]; 9 mo): pass
Imp 1 ([3]; 9 mo): 0.02%
Imp RRT 1.7 ([3]; 9 mo): 0.08%
Purity ([3]; 9 mo): 99.8%
T.I. (total impurities) ([3]; 9 mo): 0.16%
T.U.I (total unspecified impurity) ([3]; 9 mo): 0.05%
A.U.I. (any unspecified impurity) ([3]; 12 mo): 0.06%
Identity HPLC ([3]; 12 mo): pass
Identity IR ([3]; 12 mo): Pass
Identity PXRD ([3]; 12 mo): Pass
Imp 1 ([3]; 12 mo): 0.02%
Imp RRT 1.7 ([3]; 12 mo): 0.02%
Purity ([3]; 12 mo): 99.8%
T.I. (total impurities) ([3]; 12 mo): 0.14%
T.U.I (total unspecified impurity) ([3]; 12 mo): 0.09%
A.U.I. (any unspecified impurity) ([3]; 18 mo): 0.06%
Identity HPLC ([3]; 18 mo): pass
Imp 1 ([3]; 18 mo): 0.02%
Imp RRT 1.7 ([3]; 18 mo): 0.02%
Purity ([3]; 18 mo): 99.9%
T.I. (total impurities) ([3]; 18 mo): 0.13%
T.U.I (total unspecified impurity) ([3]; 18 mo): 0.09%
A.U.I. (any unspecified impurity) ([3]; 24 mo): 0.06%
Identity HPLC ([3]; 24 mo): pass
Imp 1 ([3]; 24 mo): 0.02%
Imp RRT 1.7 ([3]; 24 mo): 0.02%
Purity ([3]; 24 mo): 99.8%
T.I. (total impurities) ([3]; 24 mo): 0.15%
T.U.I (total unspecified impurity) ([3]; 24 mo): 0.11%
A.U.I. (any unspecified impurity) ([3]; Init): 0.04%
Identity HPLC ([3]; Init): pass
Identity IR ([3]; Init): pass
Identity PXRD ([3]; Init): pass
Imp 1 ([3]; Init): 0.01%
Imp RRT 1.7 ([3]; Init): 0.08%
Purity ([3]; Init): 99.9%
T.I. (total impurities) ([3]; Init): 0.14%
T.U.I (total unspecified impurity) ([3]; Init): 0.05%
water content (DVS) ([4]; at 20% relative humidity (sorption and desorption)): about 9%
water content (DVS) ([4]; at 90% relative humidity (sorption and desorption)): about 14%
